Values quoted from earlier work in the CATMoS acute toxicity set (Mansouri et al. 2021).
Where “and” joins values, the source holds several entries; their conditions need not be identical. Equal values may be shown once.

Assay: rat acute oral toxicity
Conditions: in vivo

SMILES	LD50
CCOC(=O)c1ccc(OC)cc1	2040 mg/kg
COC(=O)CCBr	1600 mg/kg
CC(=Cc1ccccc1)CC(=O)N(CCO)CCO	1500 mg/kg
Fc1cccc(C(F)(F)F)n1	50 mg/kg
Clc1c(Cl)c(Cl)c2c(c1Cl)Oc1c(Cl)c(Cl)c(Cl)c(Cl)c1O2	1 mg/kg
FC(F)(F)c1nc2c(Cl)c(Cl)c(Cl)c(Cl)c2[nH]1	0.245 mg/kg
CCCCC(CC)CN (centres undefined)	450 mg/kg
C=CCOC(=O)CC#N	160 mg/kg
CN1CCCCC1C(c1ccccc1)c1cccc(O)c1 (centres undefined)	1 mg/kg
O=[N+]([O-])c1cc2nc(C(F)(F)F)[nH]c2cc1[N+](=O)[O-]	15.2 mg/kg
CC1(CCO)CCOCO1 (centres undefined)	8800 mg/kg
O=C1NS(=O)(=O)c2ccccc21	14200 mg/kg
CCCC(N)(CCC)CCC	135 mg/kg
CCCC(C)C(=O)O (centres undefined)	2040 mg/kg
CCC(=O)C1(N2CCCCC2)CCN(CCCC(=O)c2ccc(F)cc2)CC1	780 mg/kg
CCCCCCCCCCOCCCN(C(=O)CC(C(=O)O)S(=O)(=O)O)C(CC(=O)OCC)C(=O)OCC (centres undefined)	16200 mg/kg
CN(CC#N)N=O	45 mg/kg
O=C1NCCN1c1ncc([N+](=O)[O-])s1	900 mg/kg
CN(C)C(=O)CN1C(=O)C2C3C=C(C(O)(c4ccccc4)c4ccccn4)C(C3=C(c3ccccc3)c3ccccn3)C2C1=O (centres undefined)	5.9 mg/kg
CCOc1ccc(NCCC#N)cc1	4600 mg/kg
CCOC(=O)CC(=O)NP(=O)(OC)SC (centres undefined)	125 mg/kg
COCC(=O)NP(=O)(OC)SC (centres undefined)	200 mg/kg
CCCCCCCCCCCCCCCCC[N+](C)(C)C	3650 mg/kg
CCCC(=O)NP(=O)(OC)SC (centres undefined)	125 mg/kg
COc1cc(NC(=O)C(N=Nc2ccc(-c3ccc(N=NC(C(C)=O)C(=O)Nc4ccc(C)cc4C)c(Cl)c3)cc2Cl)C(C)=O)c(OC)cc1Cl (centres undefined)	2230 mg/kg

SMILES	LD50
c1ccc(Oc2nncc3ccccc23)cc1	1000 mg/kg
O=C1OCC(CCl)O1 (centres undefined)	80 mg/kg
CC(C)=C1C(=O)N(c2ccccc2)N(c2ccccc2)C1=O	1280 mg/kg
COc1cc(C(=O)N2CCCCCCC2)cc(OC)c1OC	130 mg/kg
CC(=O)O[C@H]1C[C@@H]2CC[C@@H]3[C@H](CC[C@@]4(C)[C@H]3C[C@H]([N+]3(C)CCCCC3)[C@@H]4OC(C)=O)[C@@]2(C)C[C@@H]1N1CCCCC1	455 mg/kg
O=Cc1ccc(CO)o1	2500 mg/kg
O=C1c2ccccc2C(=O)c2c1ccc1c2[nH]c2ccc3c4ccc5c6c(ccc(c(=O)c3c21)c46)c1ccc2c(=O)c3ccccc3c3nn5c1c23	11200 mg/kg
CC(C)Oc1cc(-n2nc(C(C)(C)C)oc2=O)c(Cl)cc1Cl	3500 mg/kg
CC(=O)C=Cc1ccco1	325 mg/kg
NC(N)=O	350 mg/kg
O=C1CC[C@@]2(O)[C@H]3Cc4ccc(O)c5c4[C@@]2(CCN3CC2CC2)[C@H]1O5	1450 mg/kg
C/C=N/N(C)C=O	320 mg/kg
CCCCCCCC/C=C\CCCCCCCC(=O)NCCS(=O)(=O)O	4000 mg/kg
O=C(Nc1cccc(Cl)c1)OCC#CCCl	527 mg/kg
C=C(CC(C)(C)c1ccccc1)c1ccccc1	300 mg/kg
CN(C)c1ccc(N)c2ccccc12	400 mg/kg
CC(C)(N)Cc1ccccc1Cl	332 mg/kg
Nc1ccc(C(F)(F)F)c(NC(=O)c2cccnc2)c1	800 mg/kg
O=C1C=CC[C@@H]2[C@H]3CCCN4CCC[C@@H](CN12)[C@@H]34	196 mg/kg
COc1ccc(C(Oc2ccccc2)C2=NCCCN2)cc1F (centres undefined)	1000 mg/kg
CC(C)Cc1ccc(CC(=O)O)cc1	2300 mg/kg
Cc1ccc(/C(=C\CN2CCCC2)c2ccccn2)cc1	840 mg/kg
Cc1ccc(N)nc1	200 mg/kg
CC(O)=S	200 mg/kg
C/C(=C/CC[C@@]1(C)C2C[C@@H]3[C@H](C2)C31C)CO	3800 mg/kg

SMILES	LD50
C=CCSC(C)C1(CC(C)C)C(=O)N=C(O)NC1=O (centres undefined)	417 mg/kg
NNC(=O)[C@@H](N)CS	1050 mg/kg
CNCC1CCCCC1	1410 mg/kg
CC[C@@H](CO)NC(=O)[C@@H]1C=C2c3cccc4[nH]cc(c34)C[C@H]2N(C)C1	93 mg/kg
CCN(COC(C)=O)N=O	810 mg/kg
O=C(O)c1ccccc1OP(=O)(O)O	1100 mg/kg
CC(=O)[C@H]1CC[C@H]2[C@@H]3CC[C@H]4C[C@H](O)CC[C@]4(C)[C@H]3C(=O)C[C@]12C	297 mg/kg
CCCSP(=S)(OC)SCCC	16 mg/kg
C1=CCC(C2OCC3(CC=CCC3)CO2)CC1 (centres undefined)	5190 mg/kg
COc1cc(N)ccc1N	60 mg/kg and 70 mg/kg
C=C(C)C(=O)OCC(C)O (centres undefined)	11200 mg/kg
Cc1ccccc1N=Nc1c(N)ccc2ccccc12	120 mg/kg
CC(COc1ccccc1)N(CCCl)Cc1ccccc1 (centres undefined)	2500 mg/kg
O=C(O)CCCCC(=O)O	7900 mg/kg and 10000 mg/kg
Nc1ccc(S(=O)(=O)Nc2ccc(NC(=O)CCC(=O)O)cc2)cc1	1500 mg/kg
N#CSCCSC#N	50 mg/kg
c1ccc(C(c2ccccc2)(c2ccccc2)N2CCOCC2)cc1	83 mg/kg
CC(C)c1ccc(C#N)cc1	3900 mg/kg
CCCCNC(=S)NCCCC	350 mg/kg
CCC(CC)COCCC#N	2460 mg/kg
CCC1(CCC(C)C)C(=O)N=C(O)NC1=O (centres undefined)	275 mg/kg
CCOC(=O)N(C)CC1CCN(c2nc(N)c3cc(OC)c(OC)cc3n2)CC1	660 mg/kg
OC1CCc2ccccc21 (centres undefined)	620 mg/kg
CCOP(=S)(OCC)SC1OCCOC1SP(=S)(OCC)OCC (centres undefined)	20 mg/kg
CC1=NN(c2ccc(C)cc2)C(=O)C1	7450 mg/kg

SMILES	LD50
CSC(C)(C)C=NOC(=O)N(C)SN1CCOCC1	1.2 mg/kg
CC(C)c1cc(Oc2c(I)cc(CC(=O)O)cc2I)ccc1O	5.4 mg/kg
CC(=O)C(C)(C)C	610 mg/kg
CCCOC(=O)OOC(=O)OCCC	3400 mg/kg
CCc1ccc(C(=O)C(C)CN2CCCCC2)cc1 (centres undefined)	1000 mg/kg
CNC(=O)Oc1cccc(N=CN(C)C)c1	20 mg/kg
C=COCCOC	3900 mg/kg
O=P1(N(CCCl)CCCl)NCCCO1 (centres undefined)	94 mg/kg
CN1c2ccccc2Sc2ccc(CC(=O)O)cc21	495 mg/kg
CCSC(C)CC1CC(=O)C(C(=O)CC)C(=O)C1 (centres undefined)	170 mg/kg
COc1ccc(Nc2ccc(OC)cc2)cc1	2470 mg/kg
O=[N+]([O-])c1ccc2c(N=Nc3ccc4ccccc4c3O)c(O)cc(S(=O)(=O)O)c2c1	17600 mg/kg
Cc1ncc(CS)c(CS)c1O	549 mg/kg
FC(Cl)(C(Cl)(Cl)Cl)C(Cl)(Cl)Cl	500 mg/kg
O=[N+]([O-])c1ccc(O)c(CNCCO)c1	23 mg/kg
S=C1NCNCN1	4.6 mg/kg
ClC(Cl)C(Cl)C(Cl)C(Cl)Cl (centres undefined)	400 mg/kg
Cc1cc2c(cc1C)C(=O)c1n[nH]nc1C2=O	980 mg/kg
CC1(C)[C@@H]2CC[C@@]1(C)[C@H](OC(=O)CSC#N)C2	1000 mg/kg
ClC(COCC(Cl)C(Cl)(Cl)Cl)C(Cl)(Cl)Cl (centres undefined)	3630 mg/kg
CCCCCCCCOS(=O)(=O)O	3200 mg/kg
CCSC(=O)N(CC)CC	400 mg/kg
Cc1occc(=O)c1O	1410 mg/kg
O=C(CF)Nc1ccc(F)cc1	2 mg/kg
CCCC(=O)OC(Cl)C(Cl)(Cl)Cl (centres undefined)	1480 mg/kg

SMILES	LD50
Cc1ccc2ncccc2c1	800 mg/kg
OCCOCCOCCOCCOc1ccccc1	1260 mg/kg
CCCCCCOCC(O)COc1ccccc1C(=O)O (centres undefined)	2150 mg/kg
OC(CCN1CCCCC1)(c1ccccc1)C1CCCC1 (centres undefined)	628 mg/kg
COC(=O)c1ccccc1OC	3800 mg/kg
CCCCC1C(=O)NN(c2ccccc2)C1=O (centres undefined)	1750 mg/kg
CNC(=O)Oc1ccc(CC#N)cc1	511 mg/kg
C=CC1OCC2(CO1)COC(C=C)OC2 (centres undefined)	3250 mg/kg
NC(=S)Nc1ccccc1Cl	4.6 mg/kg
O=C(OCC(Br)(Br)Br)c1ccco1	1500 mg/kg
CC(Cc1ccc(C(C)(C)C)cc1)CN1C[C@@H](C)O[C@@H](C)C1 (single isomer, unassigned)	3540 mg/kg
CC(C)(C)c1cc(CCC(=O)O)ccc1O	1000 mg/kg
C=CCOC=O	124 mg/kg
C1CN(SSSSN2CCOCC2)CCO1	4800 mg/kg
Nc1nc2cc(F)ccc2o1	1000 mg/kg
NCCNCc1ccccc1O	3700 mg/kg
Nc1c(/N=N/c2ccc(-c3ccc(/N=N/c4cc(S(=O)(=O)O)c5ccccc5c4N)cc3)cc2)cc(S(=O)(=O)O)c2ccccc12	15200 mg/kg
CON=CC1=CCCN(OC(=O)Nc2ccc(Cl)cc2)C1	500 mg/kg
C/C=C1\[C@H]2C=C(C)C[C@]1(N)c1ccc(=O)[nH]c1C2	15 mg/kg
CCCCCCCCCCCCN	1020 mg/kg
CC(C)OC(=O)OOC(=O)OC(C)C	2140 mg/kg
N/C(CNc1ccc(Cl)c(Cl)c1)=N/O	245 mg/kg
CCOC(=O)C(C(=O)Cc1c(C)n(C(=O)c2ccc(Cl)cc2)c2ccc(OC)cc12)C(=O)OCC	520 mg/kg
CON(C)C(=O)Nc1ccc(Br)c(Cl)c1	2150 mg/kg
CCCCC(C)C(C)C(C)C(C)=O (centres undefined)	8470 mg/kg

SMILES	LD50
CC(=O)CCc1ccccc1	3200 mg/kg
CC(C)CCOC(=S)S	765 mg/kg
CNC(=O)ON=C1SCSC1C (centres undefined)	0.88 mg/kg
CN1CCC(=C2c3ccccc3C=Cc3ccccc32)CC1	295 mg/kg
CCCCCCCCOP(=O)(O)OCCC(Cl)Cl	10300 mg/kg
Cc1cnccn1	1800 mg/kg
COc1ccccc1-c1ccccc1	3600 mg/kg
COCCOCc1ccccc1	2290 mg/kg
CN1CCCN(C(c2ccccc2)c2ccc(Cl)cc2)CC1 (centres undefined)	490 mg/kg
CCCCN=C(NCCCC)C(OCC)c1ccc(Cl)cc1 (centres undefined)	220 mg/kg
CCCN1C[C@H](CSC)C[C@@H]2c3cccc4[nH]cc(c34)C[C@H]21	8.4 mg/kg
CSCCC(OC(C)=O)C(=O)O (centres undefined)	2340 mg/kg
CCN(CC)C(C)=O	1500 mg/kg
CCOP(=S)(OCC)SCCSCC(=O)NC	18 mg/kg
CC(=O)OCC#N	32 mg/kg
C=CCC1(C(C)CC)C(=O)NC(=O)NC1=O (centres undefined)	57.5 mg/kg
CCCCC(CC)CCC(CCC(CC)CC)OS(=O)(=O)O (centres undefined)	1430 mg/kg
O=S(=O)(c1ccc(NC([C@H](O)[C@@H](O)[C@H](O)[C@H](O)CO)S(=O)(=O)O)cc1)c1ccc(NC([C@H](O)[C@@H](O)[C@H](O)[C@H](O)CO)S(=O)(=O)O)cc1 (some centres undefined)	3000 mg/kg
CCOCN(C(=O)CCl)c1c(C)cccc1OC(C)C	2700 mg/kg
CCC1(c2ccccc2)CCNC1=O (centres undefined)	990 mg/kg
CCOc1ccc(Cc2nc(C)cc3cc(OC)c(OC)cc23)cc1OC	1960 mg/kg and 2070 mg/kg
CC(C)C1NC(=O)c2ccccc2O1 (centres undefined)	1850 mg/kg
CCOC1Oc2ccc(OS(C)(=O)=O)cc2C1(C)C (centres undefined)	1130 mg/kg
CCOP(=S)(OCC)SC1CCSc2ccc(Cl)cc21 (centres undefined)	63 mg/kg
